Experimental data taken from patent US20120190546A1, “HERBICIDAL COMPOSITION AND METHOD OF USE THEREOF” (SYNGENTA CROP PROTECTION LLC, priority 2007, published 2012).

Legend:
[1] = test system: white clover (Trifolium repens); assay: Glasshouse trial: control of white clover with mesotrione and oxadiazon applied post-emergence; format: in vivo; design: key to Synergy (actual vs expected), Plus Mesotrione at 100 g ai/ha / Synergy (actual vs expected), Plus Mesotrione at 150 g ai/ha: ‘n’indicates no synergy observed; *indicates synergy; conditions: for Synergy (actual vs expected), Plus Mesotrione at 100 g ai/ha / Synergy (actual vs expected), Plus Mesotrione at 150 g ai/ha: Student-Newman-Keuls test; for Actual weed control, Plus Mesotrione at 100 g ai/ha / Actual weed control, Plus Mesotrione at 150 g ai/ha: X-77 0.1% v/v, evaluated 7 and 14 DAT (not said which)
Protocol: (§1) In the following tests, herbicides were applied at reduced field rates because herbicide effects are magnified in a glasshouse environment. The rates tested were selected to give between about 50 and 70% control with herbicides applied alone, so that any synergistic effect could be readily detected when testing mixtures.
(§2) A glasshouse trial was carried out. White clover seeds were sown into standard glasshouse potting mix (1:1 v/v Promix:Vero sand soil) contained in 10 cm square plastic pots. Treatments were replicated three times. Mesotrione (in the form Callisto® 480SE) was applied post-emergence to white clover (Trifolium repens) at either 100 g ai/ha or 150 g ai/ha with or without oxadiazon (in the form Ronstar®). When used, oxadiazon was applied at a rate of 210 g ai/ha or 420 g ai/ha. The adjuvant system was X-77 at 0.1% v/v in deionised water. 200 litres of herbicide/adjuvant system was used per hectare. General weed control was evaluated at 7 and 14 days after treatment (DAT). It is noted that all herbicides were applied at reduced field rates because herbicide effects are magnified in a glasshouse environment. Rates were chosen to give a 50 to 70% level of control with herbicides applied alone as this allows for detection of any synergistic effect when tank mixtures are used.
(§3) The results were evaluated using the Colby formula. The expected result for (A+B) is (A+B)−(AxB/100) where A and B are the ‘observed’ results for A and B on their own.

white clover = assay: Glasshouse trial: control of white clover with mesotrione and oxadiazon applied pre-emergence; format: in vivo, Trifolium repens; design: key to Synergy (actual vs expected), Plus Mesotrione at 25 g ai/ha / Synergy (actual vs expected), Plus Mesotrione at 50 g ai/ha: ‘n’indicates no synergy observed; *indicates synergy
Protocol: as §1, §2, §3
A glasshouse trial was carried out as described in Example 1, except that the herbicidal composition was applied pre-emergence, and lower rates of mesotrione were used as indicated below.

[2] = oxadiazon 210 g ai/ha + mesotrione 100 g ai/ha
[3] = oxadiazon 210 g ai/ha + mesotrione 150 g ai/ha
[4] = oxadiazon 420 g ai/ha + mesotrione 100 g ai/ha
[5] = oxadiazon 420 g ai/ha + mesotrione 150 g ai/ha
[6] = oxadiazon 210 g ai/ha + mesotrione 25 g ai/ha
[7] = oxadiazon 210 g ai/ha + mesotrione 50 g ai/ha
[8] = oxadiazon 420 g ai/ha + mesotrione 25 g ai/ha
[9] = oxadiazon 420 g ai/ha + mesotrione 50 g ai/ha

5-tert-butyl-3-(2,4-dichloro-5-isopropoxyphenyl)-1,3,4-oxadiazol-2(3M-one [Oxadiazon]
Expected weed control (Colby formula), Plus Mesotrione at 100 g ai/ha [1, 2]: 48%
Synergy (actual vs expected), Plus Mesotrione at 100 g ai/ha [1, 2]: n
Actual weed control, Plus Mesotrione at 100 g ai/ha [1, 2]: 48%
Expected weed control (Colby formula), Plus Mesotrione at 150 g ai/ha [1, 3]: 68%
Synergy (actual vs expected), Plus Mesotrione at 150 g ai/ha [1, 3]: *
Actual weed control, Plus Mesotrione at 150 g ai/ha [1, 3]: 77%
Expected weed control (Colby formula), Plus Mesotrione at 100 g ai/ha [1, 4]: 49%
Synergy (actual vs expected), Plus Mesotrione at 100 g ai/ha [1, 4]: *
Actual weed control, Plus Mesotrione at 100 g ai/ha [1, 4]: 75%
Expected weed control (Colby formula), Plus Mesotrione at 150 g ai/ha [1, 5]: 69%
Synergy (actual vs expected), Plus Mesotrione at 150 g ai/ha [1, 5]: *
Actual weed control, Plus Mesotrione at 150 g ai/ha [1, 5]: 77%
Actual weed control, Plus Mesotrione at 25 g ai/ha (white clover; [6]): 100%
Expected weed control (Colby formula), Plus Mesotrione at 25 g ai/ha (white clover; [6]): 77%
Synergy (actual vs expected), Plus Mesotrione at 25 g ai/ha (white clover; [6]): *
Actual weed control, Plus Mesotrione at 50 g ai/ha (white clover; [7]): 98%
Expected weed control (Colby formula), Plus Mesotrione at 50 g ai/ha (white clover; [7]): 83%
Synergy (actual vs expected), Plus Mesotrione at 50 g ai/ha (white clover; [7]): *
Actual weed control, Plus Mesotrione at 25 g ai/ha (white clover; [8]): 97%
Expected weed control (Colby formula), Plus Mesotrione at 25 g ai/ha (white clover; [8]): 96%
Synergy (actual vs expected), Plus Mesotrione at 25 g ai/ha (white clover; [8]): *
Actual weed control, Plus Mesotrione at 50 g ai/ha (white clover; [9]): 100%
Expected weed control (Colby formula), Plus Mesotrione at 50 g ai/ha (white clover; [9]): 97%
Synergy (actual vs expected), Plus Mesotrione at 50 g ai/ha (white clover; [9]): *
